Among the data in article PMC9964281, “Identification of CBPA as a New Inhibitor of PD-1/PD-L1 Interaction” (International Journal of Molecular Sciences, 2023) are Kd values, retold here.

This assay concerns the target T1, hPD-L1 (Homo sapiens, UniProt Q9NZQ7).
T1 construct: gene CD274; ectodomain (residues 18–239)
Nature of the assay: SPR (Biacore X100, CM5 chip with immobilized hPD-L1, steady-state fit). The assay is classed as binding.

T1 sequence (Q9NZQ7 18-239): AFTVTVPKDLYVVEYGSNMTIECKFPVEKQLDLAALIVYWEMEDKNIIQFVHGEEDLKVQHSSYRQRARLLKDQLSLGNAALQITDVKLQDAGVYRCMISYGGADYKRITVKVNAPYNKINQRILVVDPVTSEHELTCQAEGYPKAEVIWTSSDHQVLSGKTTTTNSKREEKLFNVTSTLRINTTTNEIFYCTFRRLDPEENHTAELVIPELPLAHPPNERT

`Clc1ccc(COc2ccc(CNCc3ccncc3)cc2)cc1` [CBPA, N-{4-[(4-chlorobenzyl)oxy]benzyl}-N-(4-pyridinylmethyl)amine] yielded a Kd of 48.1 µM.

The Kd is the concentration at which binding is half-saturated.
